Reference: patent US11186581B2, “2-(1,3-dimethyl-2,6-dioxo-1,2,3,6-tetrahydro-7H-purin-7-yl)-N-(6-(2-hydroxyphenyl)pyridazin-3-yl)acetamide as a Wnt pathway modulator” (Agency for Science, Technology and Research, priority 2017, dated 2021)
Values joined by “and” are separate entries in the source; they are usually repeats but may differ in a detail not shown here. Identical values can stand only once. Like-named read-outs stand apart in the source and are kept apart here.

Test: Plasma pharmacokinetics after single intravenous and oral dose
Format: in vivo, male BALB/c mice
Conditions: for concentration at 24 hr: average of two values
Protocol: The objective of this study was to investigate the plasma pharmacokinetics of Compound 1 in male BALB/c mice following a single intravenous and oral dose administration. A group of eighteen male mice were divided in to two groups as Group 1 and Group 2 with nine mice in each group.
Animals in Group 1 were administered intravenously with Compound 1 solution formulation in 7.5% NMP, 5% Solutol HS-15 and 87.5% normal Saline at a dose of 1 mg/kg.
Animals in Group 2 were administered orally with Compound 1 solution formulation in 7.5% NMP, 5% Solutol HS-15 and 87.5% normal Saline at a dose of 5 mg/kg.
Blood samples (approximately 60 μL) were collected under light isoflurane anesthesia from retro orbital plexus at predose, 0.08, 0.25, 0.5, 1, 2, 4, 8 and 24 hr (IV) and predose, 0.25, 0.5, 1, 2, 4, 6, 8 and 24 hr (PO). During each sampling point, blood samples were collected in labeled pre-chilled tubes containing K2EDTA (20% K2EDTA solution) as an anticoagulant and protease inhibitor (10 μL of 10× solution/100 μL of blood). Low temperature was maintained till storage of plasma at −70° C. Plasma samples were separated by centrifugation of whole blood and stored below −70° C. until bioanalysis. All samples were processed for analysis by protein precipitation using acetonitrile (ACN) and analyzed with fit-for-purpose LC/MS/MS method (Lower limit of quantitation (LLOQ: 1.02 ng/mL). Pharmacokinetic parameters were calculated using the non-compartmental analysis tool of Phoenix WinNonlin® (Version 6.3). The overall pharmacokinetic parameters are summarized below:
The objective of the study is to determine the plasma pharmacokinetics of Compound 1 in male BALB/c mice following a single intravenous (1 mg/kg) and oral (5 mg/kg) administration in presence of a protease inhibitor.
A group of eighteen male mice were divided in to two groups as Group 1 and Group 2 with nine mice in each group. Animals in Group 1 were administered intravenously with Compound 1 solution formulation in 7.5% NMP, 5% Solutol HS-15 and 87.5% normal Saline at a dose of 1 mg/kg. Animals in Group 2 were administered orally with Compound 1 solution formulation in 7.5% NMP, 5% Solutol HS and 87.5% normal Saline at a dose of 5 mg/kg.
The dosing volume administered was 5 mL/kg for intravenous and 10 mL/kg for oral administration.
Blood samples (approximately 60 μL) were collected from retro-orbital plexus of three mice at each time point [predose, 0.08, 0.25, 0.5, 1, 2, 4, 8 and 24 hr (IV) and predose, 0.25, 0.5, 1, 2, 4, 6, 8 and 24 hr (PO)]. During each sampling point, blood samples were collected in labeled pre-chilled tubes containing K2EDTA (20% K2EDTA solution) as an anticoagulant and protease inhibitor (10 μL of 10× solution/100 μL of blood). Low temperature was maintained till storage of plasma at −70° C. Plasma was immediately harvested from the blood by centrifugation at 4000 rpm for 10 min at 4±2° C. and stored below −70° C. until bioanalysis. Preparation of protease inhibitor solution: One tablet of sigmaFAST (Product Code: 58820) was reconstituted into 10 mL of Milli-Q water to prepare 10× solution.
Concentrations of Compound 1 in mouse plasma samples were determined by fit-for-purpose LC-MS/MS method. The sample processing and extraction procedure, chromatographic and mass spectrometric conditions are provided below:
A 25 μL of study sample (DF was applied for few samples) or spiked plasma calibration standard was added to individual pre-labeled micro-centrifuge tubes followed by 100 μL of internal standard prepared in acetonitrile (Glipizide, 500 ng/mL) was added except for blank, where 100 μL of acetonitrile was added. Samples were vortexed for 5 minutes. Samples were centrifuged for 10 minutes at a speed of 4000 rpm at 4° C. Following centrifugation, 100 μL of clear supernatant was transferred in 96 well plates and analyzed using LC-MS/MS.
Non-Compartmental-Analysis tool of Phoenix WinNonlin® (Version 6.3) was used to assess the pharmacokinetic parameters. […]

[1] = male, BALB/c, mouse, IV 1 mg/kg, plasma
[2] = male, BALB/c, mouse, PO 5 mg/kg, plasma

Compound: Cn1c(=O)c2c(ncn2CC(=O)Nc2ccc(-c3ccccc3O)nn2)n(C)c1=O [Compound 1, 2-(1,3-dimethyl-2,6-dioxo-1,2,3,6-tetrahydro-7H-purin-7-yl)-N-(6-(2-hydroxyphenyl)pyridazin-3-yl)acetamide]
- Vss relative to normal volume of total body water (0.7 L/kg) (IV 1 mg/kg): ~2 fold
- Plasma concentration, individual animals (IV 1 mg/kg, 0.08 hr, 1 mg/kg): 1220.50 ng/mL and 2541.20 ng/mL and 2233.92 ng/mL
- Plasma concentration, individual animals (IV 1 mg/kg, 0.25 hr, 1 mg/kg): 1052.34 ng/mL and 1048.27 ng/mL
- Plasma concentration, individual animals (IV 1 mg/kg, 0.5 hr, 1 mg/kg): 899.26 ng/mL and 894.59 ng/mL
- Plasma concentration, individual animals (IV 1 mg/kg, 1 hr, 1 mg/kg): 151.52 ng/mL and 496.44 ng/mL and 268.90 ng/mL
- Plasma concentration, individual animals (IV 1 mg/kg, 2 hr, 1 mg/kg): 60.16 ng/mL and 49.49 ng/mL
- Plasma concentration, individual animals (IV 1 mg/kg, 4 hr, 1 mg/kg): 37.94 ng/mL and 27.10 ng/mL
- Plasma concentration, individual animals (IV 1 mg/kg, 8 hr, 1 mg/kg): 6.59 ng/mL and 27.95 ng/mL and 8.94 ng/mL
- Plasma concentration, individual animals (IV 1 mg/kg, 24 hr, below LLOQ considered zero, 1 mg/kg): 1.36 ng/mL and 1.10 ng/mL and 0.00 ng/mL
- CL (expressed as CLf) (PO 5 mg/kg): 26.74 mL/min/kg
- Vss (expressed as Vz) (PO 5 mg/kg): 7.55 L/kg
- Time up to which plasma concentrations were quantifiable (PO 5 mg/kg, 2 animals out of 3, LLOQ 1.02 ng/mL): up to 24 hr
- Plasma concentration, individual animals (PO 5 mg/kg, 0.25 hr, 5 mg/kg): 2450.80 ng/mL and 1426.54 ng/mL
- Plasma concentration, individual animals (PO 5 mg/kg, 0.5 hr, 5 mg/kg): 2167.46 ng/mL and 1898.77 ng/mL and 1070.15 ng/mL
- Plasma concentration, individual animals (PO 5 mg/kg, 1 hr, 5 mg/kg): 474.33 ng/mL and 433.52 ng/mL
- Plasma concentration, individual animals (PO 5 mg/kg, 2 hr, 5 mg/kg): 331.78 ng/mL and 365.08 ng/mL
- Plasma concentration, individual animals (PO 5 mg/kg, 4 hr, 5 mg/kg): 86.92 ng/mL and 503.47 ng/mL and 59.61 ng/mL
- Plasma concentration, individual animals (PO 5 mg/kg, 6 hr, 5 mg/kg): 110.77 ng/mL and 81.54 ng/mL
- Plasma concentration, individual animals (PO 5 mg/kg, 8 hr, 5 mg/kg): 41.28 ng/mL and 53.22 ng/mL
- Plasma concentration, individual animals (PO 5 mg/kg, 24 hr, below LLOQ considered zero, 5 mg/kg): 0.00 ng/mL and 1.28 ng/mL and 2.31 ng/mL
- concentration at 0.08 hr (male, BALB/c, mouse, plasma, iv, 1 mg/kg, IV 1 mg/kg, 0.08 hr): 2000 ng/mL
- concentration at 0.25 hr (male, BALB/c, mouse, plasma, iv, 1 mg/kg, IV 1 mg/kg, 0.25 hr, read-out: Plasma concentration, Mean): 1020 ng/mL
- concentration at 0.25 hr (male, BALB/c, mouse, plasma, iv, 1 mg/kg, IV 1 mg/kg, 0.25 hr, read-out: Plasma concentration, individual animals): 948 ng/mL
- concentration at 0.5 hr (male, BALB/c, mouse, plasma, iv, 1 mg/kg, IV 1 mg/kg, 0.5 hr, read-out: Plasma concentration, Mean): 915 ng/mL
- concentration at 0.5 hr (male, BALB/c, mouse, plasma, iv, 1 mg/kg, IV 1 mg/kg, 0.5 hr, read-out: Plasma concentration, individual animals): 952 ng/mL
- concentration at 1 hr (male, BALB/c, mouse, plasma, iv, 1 mg/kg, IV 1 mg/kg, 1 hr, read-out: Plasma concentration, Mean): 306 ng/mL
- concentration at 2 hr (male, BALB/c, mouse, plasma, iv, 1 mg/kg, IV 1 mg/kg, 2 hr, read-out: Plasma concentration, Mean): 50.7 ng/mL
- concentration at 2 hr (male, BALB/c, mouse, plasma, iv, 1 mg/kg, IV 1 mg/kg, 2 hr, read-out: Plasma concentration, individual animals): 42.5 ng/mL
- concentration at 4 hr (male, BALB/c, mouse, plasma, iv, 1 mg/kg, IV 1 mg/kg, 4 hr, read-out: Plasma concentration, Mean): 34.7 ng/mL
- concentration at 4 hr (male, BALB/c, mouse, plasma, iv, 1 mg/kg, IV 1 mg/kg, 4 hr, read-out: Plasma concentration, individual animals): 39.2 ng/mL
- concentration at 8 hr (male, BALB/c, mouse, plasma, iv, 1 mg/kg, IV 1 mg/kg, 8 hr, read-out: Plasma concentration, Mean): 14.5 ng/mL
- concentration at 24 hr (male, BALB/c, mouse, plasma, iv, 1 mg/kg, IV 1 mg/kg, 24 hr): 1.23 ng/mL
- concentration at 0.25 hr (male, BALB/c, mouse, plasma, po, 5 mg/kg, PO 5 mg/kg, 0.25 hr, read-out: Plasma concentration, Mean): 1860 ng/mL
- concentration at 0.25 hr (male, BALB/c, mouse, plasma, po, 5 mg/kg, PO 5 mg/kg, 0.25 hr, read-out: Plasma concentration, individual animals): 1690 ng/mL
- concentration at 0.5 hr (male, BALB/c, mouse, plasma, po, 5 mg/kg, PO 5 mg/kg, 0.5 hr, read-out: Plasma concentration, Mean): 1710 ng/mL
- concentration at 1 hr (male, BALB/c, mouse, plasma, po, 5 mg/kg, PO 5 mg/kg, 1 hr, read-out: Plasma concentration, Mean): 457 ng/mL
- concentration at 1 hr (male, BALB/c, mouse, plasma, po, 5 mg/kg, PO 5 mg/kg, 1 hr, read-out: Plasma concentration, individual animals): 462 ng/mL
- concentration at 2 hr (male, BALB/c, mouse, plasma, po, 5 mg/kg, PO 5 mg/kg, 2 hr, read-out: Plasma concentration, Mean): 411 ng/mL
- concentration at 2 hr (male, BALB/c, mouse, plasma, po, 5 mg/kg, PO 5 mg/kg, 2 hr, read-out: Plasma concentration, individual animals): 535 ng/mL
- concentration at 4 hr (male, BALB/c, mouse, plasma, po, 5 mg/kg, PO 5 mg/kg, 4 hr, read-out: Plasma concentration, Mean): 217 ng/mL
- concentration at 6 hr (male, BALB/c, mouse, plasma, po, 5 mg/kg, PO 5 mg/kg, 6 hr, read-out: Plasma concentration, Mean): 91.8 ng/mL
- concentration at 6 hr (male, BALB/c, mouse, plasma, po, 5 mg/kg, PO 5 mg/kg, 6 hr, read-out: Plasma concentration, individual animals): 83.2 ng/mL
- concentration at 8 hr (male, BALB/c, mouse, plasma, po, 5 mg/kg, PO 5 mg/kg, 8 hr, read-out: Plasma concentration, Mean): 45.8 ng/mL
- concentration at 8 hr (male, BALB/c, mouse, plasma, po, 5 mg/kg, PO 5 mg/kg, 8 hr, read-out: Plasma concentration, individual animals): 43 ng/mL
- concentration at 24 hr (male, BALB/c, mouse, plasma, po, 5 mg/kg, PO 5 mg/kg, 24 hr): 1.8 ng/mL
- half-life (male, BALB/c, mouse, plasma, IV 1 mg/kg, terminal elimination half-life, read-out: T1/2 (converted)): 4.24 h
- Vd (male, BALB/c, mouse, plasma, IV 1 mg/kg, read-out: Vss): 1.2 L/kg
- Tmax (male, BALB/c, mouse, plasma, PO 5 mg/kg): 0.25 h
- bioavailability (male, BALB/c, mouse, plasma, PO 5 mg/kg vs IV 1 mg/kg, solution, from AUClast, read-out: % F (oral bioavailability)): 42%
- half-life (male, BALB/c, mouse, plasma, PO 5 mg/kg, read-out: T1/2 (expressed as T1/2Z) (converted)): 3.26 h
- AUC(0-inf) [1]: 1490 ng·h/mL
- AUC(0-t) [1]: 1480 ng·h/mL
- clearance (male, BALB/c, mouse, IV 1 mg/kg, plasma clearance): 11.2 mL/min/kg
- C0 (male, BALB/c, mouse, IV 1 mg/kg, plasma, read-out: C0 (back extrapolated conc.)): 2750 ng/mL
- AUC(0-inf) [2]: 3120 ng·h/mL
- AUC(0-t) [2]: 3110 ng·h/mL
- Cmax [2]: 1860 ng/mL
